Patent publication US10034915B2, “Small heat shock proteins and active fragments thereof as a therapy for inflammation and ischemia” (The Board of Trustees of the Leland Stanford Junior …, priority 2011, dated 2018)
Entries after “also recorded” stand apart in the source; their conditions may differ.

Legend:
[1] = tested on: EAE mice; assay: EAE in 129Sv WT mice immunized with MOG35-55/CFA, clinical scoring; assay type: in vivo, mouse; settings: vs PBS
Protocol: To investigate if the therapeutic efficacy of HSPB5 is a common feature of the whole family of small heat shock proteins, we expressed recombinant HSPB1, HSPB4, and HSPB5. We then treated EAE mice every other day starting at the peak of disease, when clinical paralysis is apparent, with an intraperitoneal (IP) administration of 10 μg of either HSPB1, HSPB4, HSPB5, or PBS as the vehicle control. […] Treating mice in vivo with HSPB1, HSPB4, or HSPB5 led to a reduction in the production of pro-inflammatory cytokines by MOG stimulated splenocytes taken from MOG immunized mice (FIG. 1c). Improvement of the clinical score was dependent on continued dosing of the sHSP. After dosing was stopped, symptoms returned, and paralysis worsened after 96 hours.
Therapeutic Peptides from HSPB5 in EAE. […] We made a series of overlapping, 15-mer peptide fragments of HSPB5 and treated mice at the peak of disease with 10 μg of each peptide every other day, using HSPB5 as a positive control and PBS as a negative control.
EAE induction and scoring. Mice were immunized subcutaneously with 100 μL of myelin oligodendrocyte glycoprotein (MOG) peptide 35-55 (2 mg/mL) and Complete Freund's adjuvant (CFA) (4 mg/mL) on Day 0. […] Mice were randomized at the peak of disease into the treatment groups where they received 10 ug/200 μL of sHSP, 1 μg/200 uL of sHSP peptide, or 200 μL of PBS (vehicle) every other day. Mice were scored every day on a clinical scoring system: 0, healthy mouse; 1, limp tail; 2, weak hindlimbs; 3, complete hindlimb paralysis; 4, weak forelimbs and paralyzed hindlimbs; 5, dead.

[2] = tested on: pro-inflammatory cytokines of MOG stimulated splenocytes; assay: Peripheral immune cell activation: cytokine production by MOG stimulated splenocytes of treated MOG immunized mice (ELISA); set-up: species or system mouse; settings: mice treated in vivo; splenocytes from MOG immunized mice
Protocol: Peripheral immune cell activation and cytokine analysis. Spleens and lymph nodes were isolated from mice 9 days after immunization with MOG35-55 and CFA. Spleens were mechanically disrupted to isolate single cell splencytes suspension. Cells were cultured in flat bottomed, 96-well plates in media (RPMI 1640 supplemented with […] L-glutamine, 1 mM sodium pyruvate, 0.1 mM non-essential amino acids, 100 U/mL penicillin, 0.1 mg/mL streptomycin, 0.5 uM 2-mercaptoethanol, and 10% fetal calf serum). Cells were stimulated with MOG35-55 (5 ug/mL, 10 ug/mL, and 20 ug/mL). For all activation assays, splenocytes were pooled from three mice per group and triplicate wells were plated. Supernatants of cells were collected at the time of peak production for each cytokine (48 hrs: IL-2, IL-12p40, IL-6; 72 hrs: TNFα and IFNγ; 96 hrs: IL-17; 120 hrs: IL-10). Cytokines were measured in the supernatants using anti-mouse OPTEIA ELISA kits (BD Pharmingen for IFNγ, IL-10, IL-2, IL-6, and IL-12p40; R&D Systems for IL-17 and TNFα).

[3] = tested on: stroke in wild-type mice; assay: Cerebral ischemia (30 min middle cerebral artery filament occlusion) in wild-type mice, lesion size; assay type: in vivo, mouse; settings: vs PBS
Protocol: Because the restoration of plasma Cryab in Cryab^−/− mice decreased the lesion size, we next investigated whether administration of Cryab into wild-type mice would have a similar effect. When Cryab was administered beginning 1 h before stroke onset and then at 12 hrs after, the lesion size at 2 d was not different between PBS and Cryab treated wild-type mice groups (FIG. 14a).
Induction of cerebral ischemia. We used 12 to 14-week-old, male mice weighing 25-30 g. The weights of the animals in all experimental groups were similar. We used filament occlusion model of cerebral ischemia as described. Briefly, mice were anesthetized with 2% isoflurane in a mixture of 20% oxygen and 80% air. After the surgical exposure, the left external and common carotid arteries were permanently ligated. Then, a 7-0 mm, silicon rubber-coated, reusable monofilament (Doccol Inc, 70SPRe2045) was inserted into the left common carotid artery and advanced towards the left internal carotid artery 9-10 mm after the left carotid bifurcation. The core body temperature was checked by a rectal probe and maintained at 37° C. throughout the surgery by a heating pad and lamp. The cerebral blood flow was measured by a laser Doppler flow-meter and at least 80% reduction compared to presurgical baseline values was achieved after the insertion of the filament. The flowmeter probe was placed 2 mm posterior and 5-6 mm lateral to the bregma on the skull. The reperfusion was achieved by withdrawal of the filament 30 min after the insertion. After the closure of the surgical wound and the mice were returned to their cages with free access to water and food.

[4] = tested on: splenocytes stimulated with concanavalin A or LPS; assay: Splenocyte cytokine response at 7 d after stroke, wild-type mice; assay type: in vivo, mouse; settings: vs PBS
Protocol: Effects of Cryab treatment on immune system. The effects of Cryab treatment on the splenocyte cytokine response were assessed at 7 d after stroke in wild-type mice. The total number of splenocytes in PBS and Cryab treated mice was equivalent at 7 d after stroke (data not shown). When stimulated by concanavalin A, splenocytes from Cryab treated mice produced fewer pro-inflammatory IL-2, IL-17, IFN-g, IL-12p40, IL-6 and more anti-inflammatory IL-10 than the splenocytes from PBS treated mice (FIG. 14d-i). When stimulated by LPS, Cryab-treated mice splenocytes produced fewer pro-inflammatory IL-6 and TNF than the splenocytes from PBS-treated mice (FIG. 14j, k).

[5] = tested on: splenocytes stimulated with anti-CD3/anti-CD28, concanavalin-A or LPS; assay: Splenocyte cytokine response at 7 d after stroke, Cryab−/− mice; assay type: in vivo, mouse; settings: Cryab treated vs PBS treated Cryab−/− mice
Protocol: The effects of Cryab treatment on splenocytes isolated from PBS treated wild-type and Cryab^−/− mice and Cryab treated Cryab^−/− mice were assessed at 7 d after stroke. Splenocytes from PBS treated Cryab^−/− mice produced more pro-inflammatory IL-2, IL-17 and TNF when stimulated with anti-CD3/anti-CD28 than both PBS-treated wild-type mice and Cryab-treated Cryab^−/− mice splenocytes (FIG. 12e). When stimulated by concanavalin-A, splenocytes from PBS treated Cryab^−/− mice produced more pro-inflammatory IFN-γ, TNF, IL-12p40 and less anti-inflammatory IL-10 compared to the splenocytes from both PBS treated wild-type and Cryab treated Cryab^−/− mice (FIG. 12e). When stimulated with LPS, splenocytes from PBS treated Cryab^−/− mice produced more TNF and less IL-10 compared to the splenocytes from both PBS treated wild-type mice and Cryab treated Cryab^−/− mice (FIG. 12e).

[6] = tested on: HSPB5−/− EAE mice; settings: WT and HSPB5 deficient mice; previously published data; cited from earlier work

Substance: αB-crystallin [HSPB5]
- EAE clinical scores over the course of the whole experiment (area under the curve) ([1]; 10 μg sHSP protein IP every other day from peak of disease): significantly improved
- clinical paralysis / EAE clinical scores ([1]; 10 μg sHSP protein IP every other day starting at the peak of disease): significantly ameliorated clinical paralysis; also recorded: therapeutic
- production of pro-inflammatory cytokines by MOG stimulated splenocytes [2]: reduction
- blood pressure, pulse rate, plasma glucose and lactate levels and arterial blood gas analysis ([3]; before, during or after cerebral ischemia): no differences
- lesion size at 2 d after stroke (TTC staining) ([3]; wild-type mice, given 1 h before stroke onset and 12 hrs after): not different
- lesion size at 7 d after stroke (silver stain) ([3]; wild-type mice, given 1 h before, 12 h, 24 h after and daily for seven days): significantly reduced
- lesion size at 7 d after stroke (silver stain) ([3]; wild-type mice, initial treatment 12 h after stroke onset, listed as Cryab): reduced stroke pathology; also recorded: conferred neuroprotection
- IL-6 production by splenocytes ([4]; LPS stimulation): fewer
- TNF production by splenocytes ([4]; LPS stimulation): fewer
- IFN-g production by splenocytes ([4]; concanavalin A stimulation): fewer
- IL-2 production by splenocytes ([4]; concanavalin A stimulation): fewer
- IL-6 production by splenocytes ([4]; concanavalin A stimulation): fewer
- IL-10 production by splenocytes ([4]; concanavalin A stimulation): more
- IL-12p40 production by splenocytes ([4]; concanavalin A stimulation): fewer
- IL-17 production by splenocytes ([4]; concanavalin A stimulation): fewer
- total number of splenocytes [4]: equivalent
- peripheral inflammatory response (splenocyte cytokines) [5]: modulates the peripheral inflammatory response
- treatment of EAE by full-length protein [6]: able to treat not only WT mice, but also HSPB5 deficient mice
